How the values were obtained:
Assay type in all cases: cell-based
caveolin-1 = test: Western-blot analysis of caveolin-1 protein expression after antisense oligonucleotide treatment; conditions: human cultivated endothelial cells; antisense 0.5 μmol/l with lipofectin; n=3
Method: (§1) For an antisense mixture, 3% lipofectin (v/v) (Gibco Life Technologies) was added to 1 ml culture medium and incubated for 60 minutes at room temperature (RT). Following this, the corresponding antisense or control oligonucleotide (Eurogentec, Köln, Germany) was added in a final concentration of 0.5 μmol/l and incubated for a further 30 minutes at room temperature. At the start of the experiments, the corresponding quantities of heparin and endothelial growth factor were added, and the conventional cell culture medium of the endothelial cell culture was replaced by the antisense lipofectin medium. After 6 hours, the antisense lipofectin medium was removed and replaced by fresh cell culture medium; the Western-blot analysis and/or the fluorescence-microscopic analysis of the decoy-oligonucleotide absorption was carried out 24 hours after the transfection. […]
(§2) The human umbilical vein endothelial cells were opened by freezing successively five times in liquid nitrogen and thawing at 37° C. […] CD40 protein was detected with a polyclonal anti-human antibody (Research Diagnostics Inc., Flanders, N.J., USA). […]

[1] = test system: human cultivated endothelial cells; test: Absorption of FITC-marked decoy oligonucleotide, fluorescence microscopy; conditions: for effect of transport inhibitors on accumulation/absorption of decoy oligonucleotides: human endothelial cells, methotrexate by comparison with folic acid; for concentration of the nucleic acids in the cell on co-incubation with nonsteroidal anti-inflammatory drug: 100 μmol/l co-incubation, 1 hour (FIG. 6)
Method: Human endothelial cells were isolated from umbilical veins by treatment with 1.6 U/ml dispase in Hepes-modified tyrode solution for 30 minutes at 37° C. and cultivated on gelatine-coated 6-well tissue-culture dishes (2 mg/ml gelatine in 0.1 M HCl for 30 minutes at room temperature) in 1.5 ml M199 medium (Gibco Life Technologies, Karlsruhe, Germany), containing 20% foetal calf serum, 50 U/ml penicillin, 50 μg/ml streptomycin, 10 U/ml nystatin, 5 mM HEPES and 5 mM TES, 1 μg/ml heparin and 40 μg/ml endothelial growth factor. […] Before the start of the experiment, the endothelial cells cultivated in the 24-well cell-culture plates were washed once with Ringer's solution at 37° C. (composition: 145 mmol/l Na^+, 5 mmol/l K^+, 156 mmol/l Cl^−, 2 mmol/l Ca^2+, 1 mmol/l Mg^2+, 10 mmol/l Hepes, 10 mmol/l D-glucose, pH 7.35). […] After an incubation period of up to 180 min at 37° C. and in ambient air, the cells were washed three times with 1 ml warm, non-modified Ringer's solution. The fluorescence intensities were recorded with the MicroMax CCD-camera (Princeton Instruments Inc., Trenton, N.J., USA), which was coupled to an Axiovert S100 TV microscope (Zeiss, Göttingen, Germany), with an excitation wavelength of 494 nm, an emission wavelength of 518 nm and 200× magnification. The fluorescence images (one image was taken for each portion of the experimental mixture) and the subsequent quantification was implemented using the MetaMorph V3.0 Software (Universal Imaging West Chester, Pa., USA). For the quantification, all fluorescence images for an experimental mixture were initially calibrated to an identical level of brightness and contrast. Following this, the software was used to determine an overall brightness integrated across the individual pixels for each image as a measure for the fluorescence intensity, thereby representing the intracellular concentration of the decoy oligonucleotide.

[2] = test system: reduced folic-acid-carrier; test: Western-blot analysis of reduced folic-acid-carrier protein expression after antisense oligonucleotide treatment; conditions: human cultivated endothelial cells; antisense 0.5 μmol/l with lipofectin; n=5
Method: as §1, §2

[3] = FITC-marked C/EBP decoy 10 μmol/l

Question: What does the source list for “5′-A*T*G*TCCCTCCGAGT*C*T*A-3′ [antisense oligonucleotide for caveolin-1]”?
Answer: protein expression of caveolin-1 (caveolin-1): 37±10 % of the control; effect on absorption of the decoy oligonucleotide ([1]; after inhibition of caveolin-1 expression, FITC-marked C/EBP decoy 10 μmol/l, 1 hour (FIG. 2)): significant restricttion

Question: For 5′-C*A*A*A*GG*T*A*GC*A*C*A*CG*A*G-3′, which “protein expression of the reduced folic-acid-carrier” value [2] is on record?
Answer: 33±10 % of the control

Question: What about the “inhibition of the decoy-oligonucleotide absorption” value ([1]; after antisense reduction of hFRC protein, FITC-marked C/EBP decoy 10 μmol/l, 1 hour (FIG. 4)) of the same compound?
Answer: 45%

Question: How did the “effect of transport inhibitors on accumulation/absorption of decoy oligonucleotides” value [1] turn out when `O=S(=O)(O)c1cc(N=C=S)ccc1C=Cc1ccc(N=C=S)cc1S(=O)(=O)O` [DIDS, 4,4′-diisothiocyano-2,2′-stilben-disulfonic acid] was run?
Answer: high sensitivity

Question: How did the “concentration of the nucleic acids in the cell on co-incubation with nonsteroidal anti-inflammatory drug” value [1, 3] turn out when `CC(C(=O)O)c1ccc(-c2ccccc2)c(F)c1` (stereo not drawn) [flurbiprofen] was run?
Answer: significantly increased

Question: For `CC(C(=O)O)c1ccc(N2Cc3ccccc3C2=O)cc1` (stereo not drawn) [indoprofen], which “concentration of the nucleic acids in the cell on co-incubation with nonsteroidal anti-inflammatory drug” value [1, 3] is on record?
Answer: significantly increased

Question: How did the “effect of transport inhibitors on accumulation/absorption of decoy oligonucleotides” value [1] turn out when `CN(Cc1cnc2nc(N)nc(N)c2n1)c1ccc(C(=O)N[C@@H](CCC(=O)O)C(=O)O)cc1` [methotrexate] was run?
Answer: considerably improved inhibition

Question: Which “effect of transport inhibitors on accumulation/absorption of decoy oligonucleotides” value [1] does the source give for `CCCN(CCC)S(=O)(=O)c1ccc(C(=O)O)cc1` [probenicid] here?
Answer: probenicid-sensitive

From patent US20060258601A1, “Formulation for inwardly transferring nucleic acids into eucaryotic cells” (priority 2002, published 2006)
